Values quoted from earlier work in patent US20030162237A1, “Methods of monitoring enzyme activity” (priority 2000, published 2003).
Where two headings read alike, the source gives them in different places.

Legend:
stem-loop IIB RNA = conditions: phosphorylated by PKC or HMK, versus unphosphorylated H6Rev

Compound | binds more tightly to stem-loop IIB RNA than unphosphorylated H6Rev (stem-loop IIB RNA) | binds more tightly to stem-loop IIB RNA than unphosphorylated H6Rev (stem-loop IIB RNA; listed as H6Rev) [fold] | expression of malignancy suppressor genes (human tumor cell lines)
P-H6Rev: HIV type-1 Rev protein H6Rev (accession number P04325) phosphorylated by PKC or HMK | ligand 7-fold more tightly than H6Rev. | 7 | 
Nc1ncn([C@H]2C[C@H](O)[C@@H](CO)O2)c(=O)n1 [5-aza-2′-deoxycytidine] |  |  | reactivate the expression of many of the malignancy suppressor genes
